Data taken from patent publication US8383582B2, “Inhibitor against forming biofilm comprising κ-casein macropeptide” (Industry Foundation of Chonnam National University, priority 2010, dated 2013).

Key:
Assay type in all cases: cell-based, Listeria monocytogenes
[1] = test system: L. monocytogenes; assay: Biofilm formation on PVC microplates under static condition (crystal violet, A595); settings: for inhibitory rate of biofilm formation (group): 24 h incubation
Text: The quantification of biofilm production on plastic microtiter plates and glass tubes was based on a previously described method (Djordjevic et al., 2002). As abiotic surfaces for biofilm formation, 96-well polyvinyl chloride (PVC) microplates (BD Biosciences, San Jose, Calif., USA) and Pyrex glass tube (10 mm by 20 mm) were used. Overnight cultures of 12 strains of L. monocytogenes were twice washed with PBS and inoculated at 10^6 CFU/ml in modified Welshimer's broth (MWB) supplemented different concentrations of CMP (Davisco Foods International, Inc., MN, USA; 0.1, 0.2, and 0.4 mg/ml or 1.0, 2.0, and 4.0 mg/ml). After incubation at 30° C. without agitation for 24 and 48 h, the microplates were twice rinsed thoroughly with double-distilled water, and a 0.1% (w/v) solution of crystal violet (CV) was added to stain the attached cells. Following staining at room temperature for 30 min, CV was removed and the wells were rinsed with double-distilled water thrice. After the microplates were air dried, the dye was solubilized with 95% ethanol solution. The absorbance at 595 nm of the solubilized dye was subsequently determined by using an enzyme-linked immunosorbent assay (ELISA) plate reader (Molecular Devices, Sunnyvale, Calif., USA). An equal volume of 95% ethanol was added in the control wells.
All experiments were conducted at least in triplicate. The effects of each treatment were analyzed by analysis of variance (ANOVA) followed by Duncan's test with the SAS software package (version 9.1; SAS, Inc., Cary, N.C., USA). The level of significance was defined at p<0.05.

[2] = test system: L. monocytogenes Scott A to AGS cell; assay: Invasion analysis (gentamicin-based) on AGS cells; settings: CMP 0.4 mg/ml, at the lower MOI, 1.5 h 37° C.
Text: (§1) The human intestinal epithelial cell line HT-29 and the human gastric epithelial cell line AGS were purchased from the Korea Cell Line Bank (KCLB; Seoul, Korea). HT-29 cells have been extensively used as a model system for studying interaction of enteric pathogens with intestinal epithelial cells. All media and fetal bovine serum (FBS) were obtained from Gibco BRL (Life Technologies Inc., Grand Island, N.Y., USA) and JBI (Jeil Biotech services Inc., Seoul, Korea). The HT-29 and AGS cells were grown in RPMI-1640 medium which was supplemented with 10% heat-inactivated FBS. The cells were routinely cultured at 37° C. in 5% CO2 incubator with 6-well or 12-well tissue culture plates for adhesion and invasion assays and in 100-mm-diameter tissue culture plates for RNA isolation.
(§2) The invasion of epithelial cells by L. monocytogenes Scott A was studied using the gentamicin-based assay described by Bunduki et al. (1993) and Gaillard et al. (1987) with modifications. Briefly, the HT-29 and the AGS cells monolayers (10^6 cells) were inoculated with 100 μl of the L. monocytogenes Scott A suspension (10^8 and 10^6 CFU/ml) and incubated for 1.5 h at 37° C. in the absence or presence of 0.4 mg/ml CMP, respectively. The monolayers were washed with PBS, followed by the addition of 250 μl of 1 mg/ml gentamicin (Sigma) and incubation for an additional 1.5 h. […]

[3] = test system: L. monocytogenes; assay: Growth yields in MWB at 30° C.; settings: data not shown
[4] = test system: L. monocytogenes Scott A to HT-29 cell; assay: Invasion analysis (gentamicin-based) on HT-29 cells; settings: CMP 0.4 mg/ml, at the lower MOI, 1.5 h 37° C.
Text: as §1, §2

## κ-casein macropeptide [CMP]
[1]; 0.1, 0.2, or 0.4 mg/ml tested, effect at 0.4 mg/ml
  inhibitory effects on biofilm formation at low concentrations: profound inhibitory effects
[1]; 1, 2, or 4 mg/ml of CMP
  differences in biofilm inhibition among the tested concentrations: no significant differences
[1]; PVC microplates, 1, 2, or 4 mg/ml of CMP
  decrease of L. monocytogenes biofilms compared to the control: < 90%
[1]; strain 17, PVC microplates
  inhibitory rate of biofilm formation (group): high inhibition (90%≦inhibition rate represent high inhibition)
[1]; strain 18, PVC microplates
  inhibitory rate of biofilm formation (group): high inhibition (90%≦inhibition rate represent high inhibition)
[1]; strain 70, PVC microplates
  inhibitory rate of biofilm formation (group): low inhibition (inhibition rate<87% represent low inhibition)
[1]; strain 106, PVC microplates
  inhibitory rate of biofilm formation (group): medium inhibition (87%≦inhibition rate<90% represent medium inhibition)
[1]; strain 303, PVC microplates
  inhibitory rate of biofilm formation (group): low inhibition (inhibition rate<87% represent low inhibition)
[1]; strain 3982, PVC microplates
  inhibitory rate of biofilm formation (group): high inhibition (90%≦inhibition rate represent high inhibition)
[1]; strain 3990, PVC microplates
  inhibitory rate of biofilm formation (group): high inhibition (90%≦inhibition rate represent high inhibition)
[1]; strain Brie-1, PVC microplates
  inhibitory rate of biofilm formation (group): high inhibition (90%≦inhibition rate represent high inhibition)
[1]; strain LCDC, PVC microplates
  inhibitory rate of biofilm formation (group): low inhibition (inhibition rate<87% represent low inhibition)
[1]; strain Scott A, PVC microplates
  inhibitory rate of biofilm formation (group): low inhibition (inhibition rate<87% represent low inhibition)
[1]; strain V7, PVC microplates
  inhibitory rate of biofilm formation (group): medium inhibition (87%≦inhibition rate<90% represent medium inhibition)
[1]; strain V37, PVC microplates
  inhibitory rate of biofilm formation (group): medium inhibition (87%≦inhibition rate<90% represent medium inhibition)
[2]
  invasion of L. monocytogenes Scott A: prevented
[3]
  effect on growth yields: did not significantly affect
[4]
  invasion of L. monocytogenes Scott A: prevented
